The experiment addresses T1, Induced myeloid leukemia cell differentiation protein Mcl-1 [C286S] (Homo sapiens, UniProt Q07820, C286S).
T1 construct: gene MCL1
Briefly: Method B: Inhibition of Mcl-1 by the Fluorescence Quenching Assay. Here is the method:
The addition of a compound which binds competitively to the same site as the peptide will result in an increase in the fluorescence intensity of the protein due to displacement of the fluorescence quencher. An 11-point serial dilution of each compound was prepared in DMSO, the final buffer conditions were 10 mM 4-(2-hydroxyethyl)-1-piperazineethanesulfonic acid [HEPES], 150 mM NaCl, 0.05% Tween 20, pH 7.4 and 5% DMSO. The final protein concentration in the assay was 1 nM with the peptide present at 10, 20 or 400 nM. The experiments were incubated for 2 hours at room temperature before fluorescence intensity was measured on a Biotek SynergyNeo plate reader (Excitation 620 nm, emission 680 nm). The dose response curves were plotted with XL-Fit software using a 4-Parameter Logistic Model (Sigmoidal DoseResponse Model) and the inhibitory concentrations that gave a 50% increase in fluorescence intensity was determined (IC50). The Ki values were determined from the IC50 values according to Cer et al, Nucleic Acids Res, 2009, 37 (WebServer issue): W441-W445. Inhibition constants (Ki) are determined from complete binding inhibition curves (cKi) or from estimated from incomplete binding inhibition curves (eKi) in most cases due to low activity.

For 3 molecules, Ki results are on record in BindingDB's records for patent US20240150293 (Les Laboratoires Servier, 2024).

SMILES strings stand for the structures. pKi: −log10 of the molar value.

T1 sequence (Q07820 whole entry C286S, looked up): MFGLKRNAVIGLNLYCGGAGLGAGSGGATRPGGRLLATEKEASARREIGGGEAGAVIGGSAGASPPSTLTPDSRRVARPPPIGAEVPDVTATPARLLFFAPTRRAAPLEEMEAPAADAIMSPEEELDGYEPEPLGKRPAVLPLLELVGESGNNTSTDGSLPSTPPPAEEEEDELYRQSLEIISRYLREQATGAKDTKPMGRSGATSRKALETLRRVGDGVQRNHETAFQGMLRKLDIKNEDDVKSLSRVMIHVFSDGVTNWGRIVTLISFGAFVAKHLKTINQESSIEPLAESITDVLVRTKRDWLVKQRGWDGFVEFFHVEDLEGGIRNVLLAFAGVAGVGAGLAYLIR

`C[C@@H](COc1ccnc2[nH]ccc12)C[C@H]1Cc2ccccc2[C@]12CC[C@@](Nc1cccc(Cl)c1)(C(=O)O)CC2` [US20240150293, Example 626]: the pKi is 8.41.

On to `C[C@@H](COc1cccc2ncsc12)C[C@H]1Cc2ccccc2[C@]12CC[C@@](Nc1cccc(Cl)c1)(C(=O)O)CC2` [US20240150293, Example 625], for which the pKi is 7.42.

With `CCC1CC(O)c2nccc(OC[C@H](C)C[C@H]3Cc4ccccc4[C@]34CC[C@@](Nc3cccc(Cl)c3)(C(=O)O)CC4)c21` (stereo partly drawn) [US20240150293, Example 624], the pKi is 8.35.
